The assay addresses T1, Human FXR full length (Homo sapiens, UniProt Q96RI1).
T1 construct: Human FXR full length and RXR full length was obtained from Ronald Evans' laboratory; expressed in transfected cells; host or cells: CV-1 cells
T1 sequence (Q96RI1 1-476 isoform Q96RI1-1): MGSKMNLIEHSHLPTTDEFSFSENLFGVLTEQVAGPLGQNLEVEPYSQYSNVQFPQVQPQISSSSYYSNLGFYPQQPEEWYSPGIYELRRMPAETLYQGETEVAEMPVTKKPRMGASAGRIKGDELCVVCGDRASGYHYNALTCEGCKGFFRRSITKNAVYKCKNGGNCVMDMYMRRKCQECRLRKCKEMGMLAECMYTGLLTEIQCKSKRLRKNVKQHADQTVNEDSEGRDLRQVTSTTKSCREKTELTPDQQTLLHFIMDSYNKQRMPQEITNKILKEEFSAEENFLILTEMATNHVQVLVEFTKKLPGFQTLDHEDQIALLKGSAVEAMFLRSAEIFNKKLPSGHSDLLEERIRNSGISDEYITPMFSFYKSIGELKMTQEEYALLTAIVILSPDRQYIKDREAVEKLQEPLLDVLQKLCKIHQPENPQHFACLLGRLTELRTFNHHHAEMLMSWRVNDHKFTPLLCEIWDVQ
T1 sequence (P19793 1-462 partner): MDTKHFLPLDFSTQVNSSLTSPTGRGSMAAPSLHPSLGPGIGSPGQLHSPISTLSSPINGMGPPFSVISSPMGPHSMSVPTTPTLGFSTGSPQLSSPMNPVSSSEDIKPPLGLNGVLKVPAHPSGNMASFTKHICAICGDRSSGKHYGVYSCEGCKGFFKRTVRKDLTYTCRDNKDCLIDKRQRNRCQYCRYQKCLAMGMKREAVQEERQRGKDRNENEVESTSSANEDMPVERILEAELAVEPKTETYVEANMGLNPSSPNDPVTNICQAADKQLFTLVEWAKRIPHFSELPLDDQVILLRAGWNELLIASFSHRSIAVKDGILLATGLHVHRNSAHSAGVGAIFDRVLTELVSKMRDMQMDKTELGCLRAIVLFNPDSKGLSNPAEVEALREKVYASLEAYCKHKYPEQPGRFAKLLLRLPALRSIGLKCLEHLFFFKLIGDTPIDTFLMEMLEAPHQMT
The experiment in a line: FXR activity screen, luciferase reporter in transfected CV-1 cells. In kind it is cell-based. The procedure:
CV-1 cells were grown in DMEM+10% charcoal stripped FCS. Cells were seeded into 384-well plates the day before transfection to give a confluency of 50-80% at transfection. A total of […] DNA containing 0.32 micrograms pCMX-hFXRfl, 0.32 micrograms pCMX-hRXRfl, 0.1 micrograms pCMXβGal, 0.08 micrograms pGLFXRE reporter and 0.02 micrograms pCMX empty vector was transfected per well using FuGene transfection reagent according to the manufacturer's instructions (Roche). Cells were allowed to express protein for 48 hours followed by addition of compound.
Human FXR full length and RXR full length was obtained from Ronald Evans' laboratory and PCR amplification of the hFXR cDNA and the hRXR cDNA was performed. The amplified cDNAs was cloned into the vector pCMX generating the plasmids pCMX-hFXRfl and pCMX-hRXRfl. Ensuing fusions were verified by sequencing. The pCMXMH2004 luciferase reporter contains multiple copies of the GAL4 DNA response element under a minimal eukaryotic promoter (Hollenberg and Evans, 1988). pCMXβGal was generated in the Evans laboratory, Salk Institute.
All compounds were dissolved in DMSO and diluted 1:1000 upon addition to the cells. Compounds were tested in quadruple in concentrations ranging from 0.001 to 100 μM. Cells were treated with compound for 24 hours followed by luciferase assay. Each compound was tested in at least two separate experiments.
Medium including test compound was aspirated and washed with PBS. 50 μL PBS including 1 mM Mg^2+ and Ca^2+ were then added to each well. The luciferase assay was performed using the LucLite kit according to the manufacturer's instructions (Packard Instruments). Light emission was quantified by counting on a Perkin Elmer Envision reader. To measure […] activity 25 μL supernatant from each transfection lysate was transferred to a new 384 microplate. Beta-galactosidase assays were performed in the microwell plates using a kit from Promega and read in a Perkin Elmer Envision reader. The beta-galactosidase data were used to normalize (transfection efficiency, cell growth etc.) the luciferase data.
The activity of a compound is calculated as fold induction compared to an untreated sample. For each compound the efficacy (maximal activity) is given as a relative activity compared to Fexaramine, a FXR agonist. The EC50 is the concentration giving 50% of maximal observed activity. EC50 values were calculated via non-linear regression using GraphPad PRISM (GraphPad Software, San Diego, Calif.).

Where [1] appears, read: first round, CV-1 cells, 24 hours, read-out: 1st RND EC50.
Where [2] appears, read: second round, CV-1 cells, 24 hours, read-out: 2nd RND EC50.
The mark [3] stands for this setting: retest, read-out: EC50 (retested).

Where two headings read alike, the source gives them in different places.

Take `COC(=O)/C=C/c1cncc(N(Cc2ccc(-c3ccc(N(C)C)cc3)cc2Cl)C(=O)[C@@H]2C[C@@H]3CC[C@H]2C3)c1` [NSSK00082]: the EC50 is, setting by setting: under setting [1], 5100 nM; under setting [2], 6100 nM.
For the molecule `COC(=O)/C=C/c1cc(F)cc(N(Cc2ccc(-c3ccc4c(cnn4C)c3)cc2)C(=O)C2CCCCC2)c1` [NSSK00084], the EC50 amounted to 3600 nM under setting [1] and 4700 nM under setting [2].
Turning to `[2H]C(c1ccc(-c2ccc3c(cnn3C)c2)cc1)N(C(=O)[C@@H]1C[C@@H]2CC[C@H]1C2)c1cccc(/C=C/C(=O)OC)c1` (stereo partly shown) [NSSK00086], the EC50 reads like this: under setting [1], 371 nM; under setting [2], 1600 nM.
With `[2H]C(c1ccc(-c2ccc3c(cnn3C)c2)cc1F)N(C(=O)C1CCCCC1)c1cccc(/C=C/C(=O)OC)c1` (stereo not shown) [NSSK00089, methyl (E)-3-(3-(N-((2-fluoro-4-(1-methyl-1H-indazol-5-yl)phenyl)methyl-d)cyclohexanecarboxamido)phenyl)acrylate], the EC50 was 383 nM under setting [1], 366 nM under setting [3] and 406 nM under setting [2].
Take `COC(=O)/C=C/c1cccc(N(Cc2ccc(-c3ccc4c(cnn4C)c3)cc2Cl)C(=O)C2CCCCC2)c1` [NSSK00091]: the concentration giving a half-maximal response (EC50) is, setting by setting: under setting [1], 801 nM; under setting [2], 628 nM.
The corresponding values for `COC(=O)/C=C/c1cncc(N(Cc2ccc(-c3ccc4c(cnn4C)c3)cc2Cl)C(=O)c2ccccc2)c1` [NSSK00092] are 3400 nM and 5500 nM.
As for `[2H]C(c1ccc(-c2ccc3c(cnn3C)c2)cc1F)N(C(=O)c1ccccc1)c1cccc(/C=C/C(=O)OC)c1` (stereo not shown) [NSSK00093], the EC50 under setting [1] worked out at 459 nM and the concentration for a half-maximal effect (EC50) under setting [2] worked out at 511 nM.
Consider `[2H]C(c1ccc(-c2ccc3c(cnn3C)c2)cc1Cl)N(C(=O)[C@@H]1C[C@@H]2CC[C@H]1C2)c1cc(F)cc(/C=C/C(=O)OC)c1` (stereo partly shown) [NSSK00094], for which the concentration giving a half-maximal response (EC50) is 786 nM under setting [1] and 865 nM under setting [2].
Regarding `[2H]C(c1ccc(-c2ccc3c(cnn3C)c2)cc1Cl)N(C(=O)C1CCCCC1)c1cncc(/C=C/C(=O)OC)c1` (stereo not shown) [NSSK00095], the EC50 under setting [1] is 1400 nM and the EC50 under setting [2] was found to be 1500 nM.
`[2H]C(c1ccc(-c2ccc3c(cnn3C)c2)cc1)N(C(=O)C1CCCCC1)c1cc(F)cc(/C=C/C(=O)OC)c1` (stereo not shown) [NSSK00096, methyl (E)-3-(3-fluoro-5-(N-((4-(1-methyl-1H-indazol-5-yl)phenyl)methyl-d)cyclohexanecarboxamido)phenyl)acrylate]: the EC50 by setting is: under setting [1], 340 nM; under setting [3], 220 nM; under setting [2], 375 nM.
Consider `COC(=O)/C=C/c1cc(F)cc(N(Cc2ccc(-c3ccc4c(cnn4C)c3)cc2Cl)C(=O)C2CCCCC2)c1` [NSSK00097], for which the 50% effective concentration (EC50) was 866 nM under setting [1] and 726 nM under setting [2].
Regarding `COC(=O)/C=C/c1cccc(N(Cc2ccc(-c3ccc4c(cnn4C)c3)cc2Cl)C(=O)c2ccccc2)c1` [NSSK00098], the concentration giving a half-maximal response (EC50) runs as follows: under setting [1], 655 nM; under setting [2], 670 nM.
`COC(=O)/C=C/c1cc(F)cc(N(Cc2ccc(-c3ccc4c(cnn4C)c3)cc2F)C(=O)c2ccccc2)c1` [NSSK00099]: the EC50 was 2100 nM under setting [1] and 2100 nM under setting [2].
As to `COC(=O)/C=C/c1cc(F)cc(N(Cc2ccc(-c3ccc4c(cnn4C)c3)cc2Cl)C(=O)c2ccccc2)c1` [NSSK00100], the EC50 is, setting by setting: under setting [1], 1400 nM; under setting [2], 1800 nM.
`[2H]C(c1ccc(-c2ccc3c(cnn3C)c2)cc1Cl)N(C(=O)c1ccccc1)c1cncc(/C=C/C(=O)OC)c1` (stereo not shown) [NSSK00101]: the EC50 runs as follows: under setting [1], 5900 nM; under setting [2], 15100 nM.
The corresponding values for `COC(=O)/C=C/c1cc(F)cc(N(Cc2ccc(-c3ccc(N(C)C)cc3)cc2)C(=O)[C@@H]2C[C@@H]3CC[C@H]2C3)c1` [NSSK00102] are 252 nM and 328 nM.
The like results for `COC(=O)/C=C/c1cc(F)cc(N(Cc2ccc(-c3ccc(N(C)C)cc3)cc2Cl)C(=O)c2ccccc2)c1` [NSSK00103] were, in that order, 308 nM and 1000 nM.
In the case of `[2H]C(c1ccc(-c2ccc(N(C)C)cc2)cc1Cl)N(C(=O)[C@@H]1C[C@@H]2CC[C@H]1C2)c1cc(F)cc(/C=C/C(=O)OC)c1` (stereo partly shown) [NSSK00104], the concentration giving a half-maximal response (EC50) reads like this: under setting [1], 227 nM; under setting [2], 547 nM.
Consider `[2H]C(c1ccc(-c2ccc(N(C)C)cc2)cc1)N(C(=O)[C@@H]1C[C@@H]2CC[C@H]1C2)c1cccc(/C=C/C(=O)OC)c1` (stereo partly shown) [NSSK00107], for which the concentration giving a half-maximal response (EC50) is, setting by setting: under setting [1], 450 nM; under setting [2], 861 nM.
In the case of `[2H]C(c1ccc(-c2ccc(N(C)C)cc2)cc1F)N(C(=O)c1ccccc1)c1cc(F)cc(/C=C/C(=O)OC)c1` (stereo not shown) [NSSK00108], the EC50 under setting [2] came to 497 nM.
For `[2H]C(c1ccc(-c2ccc(N(C)C)cc2)cc1F)N(C(=O)C1CCCCC1)c1cc(F)cc(/C=C/C(=O)OC)c1` (stereo not shown) [NSSK00109], the EC50 by setting is: under setting [1], 190 nM; under setting [2], 316 nM.
For the molecule `[2H]C(c1ccc(-c2ccc(N(C)C)cc2)cc1F)N(C(=O)[C@@H]1C[C@@H]2CC[C@H]1C2)c1cc(F)cc(/C=C/C(=O)OC)c1` (stereo partly drawn) [NSSK00110, methyl (E)-3-(3-((1S,2R,4R)—N-((4′-(dimethylamino)-3-fluoro-[1,1′-biphenyl]-4-yl)methyl-d)bicyclo[2.2.1]heptane-2-carboxamido)-5-fluorophenyl)acrylate], the half-maximal effective concentration (EC50) reads like this: under setting [1], 60.1 nM; under setting [3], 46 nM; under setting [2], 174 nM.
`[2H]C(c1ccc(-c2ccc3c(cnn3C)c2)cc1)N(C(=O)[C@@H]1C[C@@H]2CC[C@H]1C2)c1cc(F)cc(/C=C/C(=O)OC)c1` (stereo partly shown) [NSSK00113]: the EC50 under setting [1] is 652 nM and the EC50 under setting [2] was 2700 nM.
In the case of `[2H]C(c1ccc(-c2ccc(N(C)C)cc2)cc1)N(C(=O)c1ccccc1)c1cc(F)cc(/C=C/C(=O)OC)c1` (stereo not shown) [NSSK00114], the EC50 runs as follows: under setting [1], 264 nM; under setting [2], 614 nM.
In the case of `COC(=O)/C=C/c1cncc(N(Cc2ccc(-c3ccc(N(C)C)cc3)cc2F)C(=O)[C@@H]2C[C@@H]3CC[C@H]2C3)c1` [NSSK00115], under setting [2], the 50% effective concentration (EC50) stood at 2000 nM.
For the molecule `[2H]C(c1ccc(-c2ccc(N(C)C)cc2)cc1F)N(C(=O)c1ccccc1)c1cncc(/C=C/C(=O)OC)c1` (stereo not shown) [NSSK00116], the 50% effective concentration (EC50) under setting [2] was 8600 nM.
Regarding `COC(=O)/C=C/c1cc(F)cc(N(Cc2ccc(-c3ccc(N(C)C)cc3)cc2Cl)C(=O)C2CCCCC2)c1` [NSSK00117], the EC50 is 983 nM under setting [1] and 1300 nM under setting [2].
The like results for `COC(=O)/C=C/c1cncc(N(Cc2ccc(-c3ccc4c(cnn4C)c3)cc2)C(=O)c2ccccc2)c1` [NSSK00118] were, in that order, 7000 nM and 55000 nM.
Consider `[2H]C(c1ccc(-c2ccc3c(cnn3C)c2)cc1)N(C(=O)c1ccccc1)c1cncc(/C=C/C(=O)OC)c1` (stereo not shown) [NSSK00119], for which the 50% effective concentration (EC50) came to 798 nM under setting [1] and 65000 nM under setting [2].

The values are drawn from US20190084939A1, “ANALOGS OF FEXARAMINE AND METHODS OF MAKING AND USING” (Salk Institute for Biological Studies, priority 2014, published 2019).
